Measured values reported in PubChem BioAssay AID651630 (Sanford-Burnham Center for Chemical Genomics, 2012).
Active and inactive are the calls of the source.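 Rule for the calls: active = lipid-stain IC50 at or below a set limit, with nuclear-stain toxicity IC50 at least five times higher; inactive = the rest.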

Experiments:
TAG = TAG lipid buildup inhibition with viability readout – cell-based, panel, Nile Red and DAPI fluorescence, H9c2, dose response (AID 651630); settings: H9c2 cells, Nile Red TAG fluorescence, oleic acid;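 note: cells exposed to compound overnight before fixation and staining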
DAPI = experiment: as above; settings: H9c2 cells, DAPI nuclear fluorescence (cytotoxicity counter-readout), oleic acid

Row | Structure (SMILES) | IC50 (TAG; mean of runs) | IC50 (TAG; run 1) [µM] | IC50 (TAG; run 2) [µM] | IC50 cytotoxicity (DAPI nuclear signal decrease) (DAPI; run 1) [µM] | IC50 cytotoxicity (DAPI nuclear signal decrease) (DAPI; run 2) [µM] | IC50 cytotoxicity (DAPI nuclear signal decrease) (DAPI; mean of runs)
1 | CCOc1ccc(CCNC(=O)CN2CCN(Cc3ccccc3C)C2=O)cc1OCC | 2.19 µM | 1.85 | 2.54 | > 25 | > 25 | 
2 | CC(C)Cc1nc2sc3c(NCc4ccco4)ncnc3c2c2c1COC(C)(C)C2 | > 25 µM (inactive) | > 25 | > 25 | > 25 | > 25 | > 25 µM (inactive)
3 | CCCCOc1ccc(CSC2=NCCN2)cc1[N+](=O)[O-] | > 25 µM (inactive) | > 25 | > 25 | > 25 | > 25 | > 25 µM (inactive)
4 | CCN(C(=O)COC(=O)c1cc(-c2ccccc2)nc2c1c(C)nn2-c1ccc(C)cc1)C1CCS(=O)(=O)C1 (stereo not drawn) | > 25 µM (inactive) | > 25 | > 25 | > 25 | > 25 | > 25 µM (inactive)
5 | CC(C)NC(=O)N(C)C[C@H]1Oc2cc(C#Cc3ccc(F)cc3)ccc2S(=O)(=O)N([C@H](C)CO)C[C@H]1C | 8.39 µM | 11 | 5.81 | > 25 | > 25 | > 25 µM (inactive)
6 | C=CCC[C@@H](Cc1ccc(F)cc1)C(=O)OC[C@@H](Cc1c[nH]c2ccccc12)NC(=O)[C@H](CC=C)CC(=O)N(CCO)Cc1ccccc1 | 6.99 µM | 6.29 | 7.69 | > 25 | > 25 | > 25 µM (inactive)
7 | CC(C)c1ccc(NC(=O)Nc2nc(C(N)COCc3ccccc3)cs2)cc1 (stereo not drawn) |  | > 25 | 14 | 20.8 | 19.7 | 20.2 µM (inactive)
8 | CCCCCCCC(=O)Nc1cc(C(=O)NCCC)ccc1N1CCC2(CC1)CC(c1cccc(Br)c1)=NO2 | 15.2 µM (inactive) | 11.8 | 18.6 | > 25 | > 25 | > 25 µM (inactive)
9 | C[C@H](CO)N1C[C@H](C)[C@H](CN(C)S(=O)(=O)c2ccc(Cl)cc2)OCc2ccccc2-c2c(n(C)c3ccccc23)C1=O | > 25 µM (inactive) | > 25 | > 25 | 13 | > 25 | 
10 | COc1ccc(NC(=O)Cn2c(=O)n(-c3ccc(CC(=O)NCc4ccco4)cc3)c(=O)c3ccccc32)cc1 |  | 24.7 | > 25 | > 25 | > 25 | > 25 µM (inactive)
11 | CCCCCCCCn1c(N2CCN(c3cccc(Cl)c3)CC2)nc2c1c(=O)[nH]c(=O)n2C | > 25 µM (inactive) | > 25 | > 25 | > 25 | > 25 | > 25 µM (inactive)
12 | C[C@]12c3[nH]c4ccccc4c3CCN1C(=O)C(CC(=O)NCC13CC4CC(CC(C4)C1)C3)C[C@@H]2C(=O)N1CCCCC1 (stereo partly drawn) | 14.6 µM | 14.8 | 14.4 | > 25 | > 25 | > 25 µM (inactive)
13 | CCCCN1C(=O)/C(=C/C=C2/C=Cc3ccccc3N2CC)SC1=S | 4.3 µM | 2.4 | 6.2 | > 25 | > 25 | 
